Results reported in patent US20220331348A1, “METHOD OF PREPARING PENTACYCLIC TRITERPENOID SAPONINS AND DRUG COMPOSITION” (CHINA PHARMACEUTICAL UNIVERSITY, priority 2019, published 2022).

How the values were obtained:
[1] = test system: TNBS modeled Crohn's disease model mice; test: 2,4,6-trinitrobenzene sulfonic acid (TNBS) modeled Crohn's disease model mice; format: in vivo, mouse; settings: dose not given
Protocol: C57BL/6 male mice with 6-8 weeks old were selected and randomly divided into a control group, a mode group, a treatment group and a positive control group. Expect for the control group, after the mice in the rest groups anesthetized with isoflurane, hoses were carefully inserted into colons of the mice from anuses, and […] of 1.5% 2,4,6-trinitrobenzene sulfonic acid (TNBS) was slowly injected. Before the hoses were pulled out, the mice were placed upside down for 1 min. First intragastric administration was conducted at the day of enema treatment, the mice in the control group and the model group were orally administered with carboxymethyl cellulose sodium as a placebo, the mice in the treatment group were orally administered with the ziyuglycoside II (purchased from Shanghai Boka Chemistry Technology Co., Ltd) (with a dosage of 5 mg/kg), and the mice in the positive drug group were orally administered with 5-aminosalicylic acid as a clinical drug (5-ASA, purchased from Shanghai Sangon Biological Engineering Co., Ltd) (with a dosage of 100 mg/kg). Administration was continuously conducted for 7 days. In the administration process, the states of the mice were observed every day, and weight changes of the mice were recorded.
Differences in weight change of the mice in various groups were compared, from which, ziyuglycoside II has the treatment effect on the 2, 4, 6-trinitrobenzene sulfonic acid (TNBS) modeled Crohn's disease model mice.
The above mice were sacrificed by cervical dislocation at day 8, colon tissues were harvested, lengths of the colon tissues were measured for statistical summary, and differences in colon length of various groups were compared, from which, the ziyuglycoside II has significant treatment effect on the Crohn's disease model mice. […] 10 mg of proximal rectum segments of the colon tissues of the above mice were selected, PBS was added for homogenization, and centrifugation was conducted for taking a supernate. The supernate was subjected to ELISA detection, and protein quantification was conducted for inflammatory factors TNF- and IL-1. […] Myeloperoxidase (MPO) is an enzyme specific to neutrophils, and the amount of the neutrophils in the intestinal tracts may be reflected by detecting the MPO level. 5 mg of proximal rectum segments of the colon tissues of the above mice were selected, PBS was added for homogenization, and the content of the MPO in a homogenate was detected with a MPO kit (purchased from Nanjing Jiancheng Bioengineering Institute). […] Therefore, the ziyuglycoside II is expected to be useful for preparing the drug for preventing or treating the inflammatory bowel diseases such as the Crohn's disease.

AMPK in Huh-7 cells = test: Activation activity on AMPK in Huh-7 cells (Western Blot); format: cell-based; settings: 12 h, relative to DMSO = 1
Protocol: The activation activity of a compound on AMPK in Huh-7 cells was detected by using Western Blot.
Cell culture conditions: Huh-7 cells were cultured in an incubator with 5% CO2 at 37° C. in DMEM complete medium (containing 10% fetal calf serum and 1% streptomycin/penicillin).
Antibody: anti-AMPK (CST, 2532S); anti-pAMPK (CST, 2535S).
Western Blot experiment: the influence of the compound on phosphorylation level of the AMPK in the Huh-7 cells was detected: cells with more than 90% cells alive were taken for the experiment. In a 12-well plate, the Huh-7 cells were plated in the plate at 250000 cells per well, the plate was placed in the incubator with 5% CO2 at 37° C. for culture, an original culture medium was discarded after 12 h, a complete medium containing the pentacyclic triterpenoid saponin was added, a final concentration of subject pentacyclic triterpenoid saponin was set to be 10 μM, and an administration time was set to be 12 h. A positive control compound employs AICAR (100 μM), metformin (70 μM) or A-769662 (100 μM). Then proteins were extracted for Western Blot detection.
Experimental result: a Western Blot experimental result was subjected to gray scale scanning, a p-AMPK/AMPK ratio of negative control DMSO was defined as 1, and a p-AMPK/AMPK ratio of the subject compound was a relative ratio of a negative control group. The larger the numerical value was, the stronger the activation activity of the AMPK of the compound was.

[2] = test system: ulcerative colitis model mice induced by DSS; test: Dextran sulphate sodium salt (DSS) induced ulcerative colitis model mice; format: in vivo, mouse; settings: DSS-induced mice; dose not given; vs model group
Protocol: C57BL/6 male mice with 6-8 weeks old were selected; a control group was fed with purified water; and a model group, a treatment group and a positive control group were fed with purified water containing 2% dextran sulphate sodium salt (DSS) (36000-50000 M.Wt) for 7 days and then with the purified water for 3 days, and drug intervention was conducted at the same time. The mice in the control group and the model group were orally administered with carboxymethyl cellulose sodium as a placebo, the mice in the treatment group were orally administered with the ziyuglycoside II (purchased from Shanghai Boka Chemistry Technology Co., Ltd) (with a dosage of 5 mg/kg), and the mice in the positive control group were orally administered with 5-aminosalicylic acid as a clinical drug (5-ASA, purchased from Shanghai Sangon Biological Engineering Co., Ltd) (with a dosage of 100 mg/kg). In the administration process, weight changes, feces characters and hematochezia conditions of the mice were observed and recorded every day and were scored, and disease activity indexes were calculated (Disease activity index, DAI).
A scoring rule and a calculation method were as follows: DAT=(weight score+diarrhea score+occult blood score)/3, wherein weight score: 0 (weight gained or unchanged), 1 (weight lost by 1-5%), 2 (weight lost by 6-10%), 3 (weight lost by 11-15%), 4 (weight lost by 15% or above); diarrhea score: 0 (normal feces), 2 (soft feces), 4 (feces sticking anuses or diarrhea); and occult blood score: 0 (negative occult blood), 2 (positive occult blood), and 4 (visible bleeding). Comparing differences in DAI of various groups, it can be known that the ziyuglycoside II has significant prevention and treatment effects on ulcerative colitis of the mice modeled by the dextran sulphate sodium salt (DSS).
The above mice were sacrificed by cervical dislocation at day 11, colon tissues were harvested, lengths of the colon tissues were measured for statistical summary, and differences in colon length of various groups were compared, from which, the ziyuglycoside II has significant prevention and treatment effect on the ulcerative colitis model mice.
Middle segments, with lengths of about 1 cm, of the colon tissues of the above mice were selected, soaked in a formalin solution for fixing overnight, embedded with paraffin and sliced, and the slices were subjected to HE staining. […] Particularly, compared with the positive drug group, the ziyuglycoside II has the advantage of maintaining a thickness of a muscular layer.
10 mg of proximal rectum segments of the colon tissues of the above mice were selected, PBS was added for homogenization, and centrifugation was conducted for taking a supernate. The supernate was subjected to ELISA detection, and protein quantification was conducted for inflammatory factors TNF-α and IL-lb.
10 mg of colon tissues of the above mice were selected for detection of ROS therein.
When the ulcerative colitis occurs, the inflammatory factors may destruct tight junction between intestinal tracts, and destruction of the tight junction enables functions of mucosal barriers to be lost and accelerates development of the diseases. 5 mg of colon tissues of the above mice were selected for qPCR analysis. […] This hints that the ziyuglycoside II further has the efficacy of increasing the expression level of the tight junction and then protecting a structure of each colon. […] Therefore, the ziyuglycoside II is expected to be useful for preparing the drug for preventing or treating the inflammatory bowel diseases such as the ulcerative colitis.

reinioside C [(IX)]
colon length of the treatment group compared with the control group [1]: nearly no difference
expression level of inflammatory factor IL-1β ([1]; vs model group): significantly lower than those of the model group
expression level of inflammatory factor TNF-α ([1]; vs model group): significantly lower than those of the model group
pAMPK/AMPK ratio (AMPK in Huh-7 cells; 10 μM, Western Blot gray scale): 1.88
DAI scores of the treatment group [2]: obviously lower than those of the model group

N#Cc1c(O)c2c(-c3ccc(-c4ccccc4O)cc3)csc2[nH]c1=O [Compound A-769662, A-769662, reference compound]
pAMPK/AMPK ratio (AMPK in Huh-7 cells; positive control 100 μM): 2.59

C[C@@H]1OC(O[C@H]2[C@H](O[C@H]3CC[C@]4(C)[C@H]5CC=C6[C@@H]7CC(C)(C)CC[C@]7(C(=O)O)CC[C@@]6(C)[C@]5(C)CC[C@H]4C3(C)C)OC[C@H](O)[C@@H]2O)[C@H](O)[C@H](O)[C@H]1O (stereo partly drawn) [(XV), β-hederin]
pAMPK/AMPK ratio (AMPK in Huh-7 cells; 10 μM, Western Blot gray scale): 2.87

CC1(C)CC[C@]2(C(=O)O)CC[C@]3(C)C(=CC[C@@H]4[C@@]5(C)CC[C@H](O[C@@H]6O[C@H](C(=O)O)[C@@H](O)[C@H](O[C@@H]7OC[C@@H](O)[C@H](O)[C@H]7O)[C@H]6O)C(C)(C)[C@@H]5CC[C@]43C)[C@@H]2C1 [(IV), kochioside Ic]
pAMPK/AMPK ratio (AMPK in Huh-7 cells; 10 μM, Western Blot gray scale): 1.75

NC(=O)c1ncn([C@@H]2O[C@H](CO)[C@@H](O)[C@H]2O)c1N [AICAR, reference compound]
pAMPK/AMPK ratio (AMPK in Huh-7 cells; positive control 100 μM): 1.47

CN(C)C(=N)N=C(N)N [Metformin, reference compound]
pAMPK/AMPK ratio (AMPK in Huh-7 cells; positive control 70 μM): 1.22

CC1(C)CC[C@]2(C(=O)O)CC[C@]3(C)C(=CC[C@@H]4[C@@]5(C)CC[C@H](O[C@@H]6O[C@H](CO)[C@@H](O)[C@H](O)[C@H]6O)C(C)(C)C5CC[C@]43C)[C@H]2C1 (stereo partly shown) [(XVI), hederin A2]
pAMPK/AMPK ratio (AMPK in Huh-7 cells; 10 μM, Western Blot gray scale): 2.05

CC1(C)CC[C@]2(C(=O)O)CC[C@]3(C)C(=CCC4[C@@]5(C)CC[C@H](O[C@@H]6O[C@H](C(=O)O)[C@@H](O)[C@H](O)[C@H]6O)C(C)(C)[C@@H]5CC[C@]43C)[C@@H]2C1 (stereo partly shown) [(III), calunduloside E]
pAMPK/AMPK ratio (AMPK in Huh-7 cells; 10 μM, Western Blot gray scale): 1.54

CC1(C)CC[C@]2(C(=O)O)CC[C@]3(C)C(=CCC4[C@@]5(C)CC[C@H](O[C@@H]6OC[C@H](O)[C@H](O)[C@H]6O)C(C)(C)[C@@H]5CC[C@]43C)[C@@H]2C1 (stereo partly shown) [(XIV), asperosaponin C]
pAMPK/AMPK ratio (AMPK in Huh-7 cells; 10 μM, Western Blot gray scale): 2.23
